Results from ChEMBL document CHEMBL1201862, “PubChem BioAssay data set” (2004).
Active and inactive are the calls of the source. Cut-off read from the data, not from the text of the source, for most assays here: actives have a measured EC50 and inactives only a lower limit.

Assays:
[1] = target: T1, RNA-binding protein pos-1 (Caenorhabditis elegans, UniProt G5EF15); assay: inhibitors of POS-1/mex-3 RNA binding, dose response, biochemical, fluorescence polarization (AID 1964);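 note: purified POS-1 fused to maltose binding protein made in E. coli; potency of compounds blocking POS-1 binding to fluorescent RNA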
T1 sequence (G5EF15 whole entry): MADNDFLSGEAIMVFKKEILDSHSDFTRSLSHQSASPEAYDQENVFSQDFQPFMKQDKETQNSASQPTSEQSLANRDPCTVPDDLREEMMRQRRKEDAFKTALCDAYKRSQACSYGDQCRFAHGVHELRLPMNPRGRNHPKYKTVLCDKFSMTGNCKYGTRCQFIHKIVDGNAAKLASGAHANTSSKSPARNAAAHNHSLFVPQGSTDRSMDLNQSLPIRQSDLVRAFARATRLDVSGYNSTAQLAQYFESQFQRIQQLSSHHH

[2] = target: T2, Zinc finger protein mex-5 (Caenorhabditis elegans, UniProt Q9XUB2); assay: MEX-5/TCR-2 RNA interaction inhibitors, dose response, biochemical, C. elegans, fluorescence polarization (AID 1960)
T2 sequence (Q9XUB2 whole entry): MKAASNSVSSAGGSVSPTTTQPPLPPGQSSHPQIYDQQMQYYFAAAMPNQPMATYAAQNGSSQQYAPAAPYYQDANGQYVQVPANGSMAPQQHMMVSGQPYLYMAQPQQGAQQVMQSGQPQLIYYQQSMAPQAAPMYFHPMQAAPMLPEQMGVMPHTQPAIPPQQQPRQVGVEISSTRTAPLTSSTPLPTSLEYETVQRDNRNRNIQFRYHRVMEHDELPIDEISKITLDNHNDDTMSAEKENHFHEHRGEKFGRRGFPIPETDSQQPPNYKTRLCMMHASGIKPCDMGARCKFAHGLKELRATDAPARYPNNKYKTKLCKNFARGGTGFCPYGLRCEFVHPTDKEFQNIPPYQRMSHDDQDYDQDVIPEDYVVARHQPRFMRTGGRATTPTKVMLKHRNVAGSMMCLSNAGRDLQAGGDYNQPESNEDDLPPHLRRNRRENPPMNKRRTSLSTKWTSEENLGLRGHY

[3] = target: T3, Polyadenylate-binding protein 1 (Homo sapiens, UniProt P11940); assay: PABP1 MLLE–PAM2 interaction inhibitors, dose response, miRNA deadenylation inhibitor project, biochemical, fluorescence polarization, Cy5-PAM2 peptide, secondary (AID 602260); format: functional; settings: read-out: IC50_Mean
[4] = target: T3, Polyadenylate-binding protein 1; assay: PABP1 MLLE–PAM2 binding inhibitor potency, dose response, biochemical, fluorescence polarization, FITC-PAM2 peptide (AID 602259); format: functional; settings: read-out: IC50_Mean
Vero = assay: cells; format: functional; settings: Chlorocebus sabaeus
[5] = growth suppression of PTEN-null colon cells, dose response, cell-based, HCT116 PTEN knockout (AID 1047); format: functional;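 note: HCT116 colon tumor cells with PTEN knocked out; cells exposed to compound for 60 hours before readout; potency for loss of cell viability measured by luminescence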
[6] = growth suppression of beta-catenin-knockout colon cells, dose response, cell-based, HCT116, human colon tumor (AID 1045); format: functional;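 note: HCT116 colon tumor cells with beta catenin knocked out; cells exposed to compound for 60 hours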
cells [7] = format: functional, cell-based
cells [8] = format: functional, cell-based; remark: listed apart in the source
[9] = tested on: Streptococcus sp. 'group A'; assay: growth inhibition of control SK(-) GAS strain, dose response, counter-screen for streptokinase expression inhibitor project, luminescence, kanamycin, BacTiterGlo, confirmation (AID 1900); format: functional, organism-based
Streptococcus = assay: Group A Streptococcus viability loss, dose response, counter-screen for streptokinase expression inhibitor project, luminescence, BacTiterGlo (AID 1915); format: functional, organism-based;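 note: potency for reduction of bacterial viability or growth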
[10] = target: T4, Heat shock factor protein 1 (Mus musculus, UniProt P38532); assay: HSF1 potentiators in luciferase reporter cells, confirmation, cell-based, NIH3T3, luminescence, dose retest (AID 435004); format: functional;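 note: stress induced by proteasome inhibitor MG132 added 30 min after compound; luciferase reporter driven by HSF1 response element in NIH3T3 cells; actives raise luminescence as potentiators of the MG132 stress response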
T4 sequence (P38532 whole entry): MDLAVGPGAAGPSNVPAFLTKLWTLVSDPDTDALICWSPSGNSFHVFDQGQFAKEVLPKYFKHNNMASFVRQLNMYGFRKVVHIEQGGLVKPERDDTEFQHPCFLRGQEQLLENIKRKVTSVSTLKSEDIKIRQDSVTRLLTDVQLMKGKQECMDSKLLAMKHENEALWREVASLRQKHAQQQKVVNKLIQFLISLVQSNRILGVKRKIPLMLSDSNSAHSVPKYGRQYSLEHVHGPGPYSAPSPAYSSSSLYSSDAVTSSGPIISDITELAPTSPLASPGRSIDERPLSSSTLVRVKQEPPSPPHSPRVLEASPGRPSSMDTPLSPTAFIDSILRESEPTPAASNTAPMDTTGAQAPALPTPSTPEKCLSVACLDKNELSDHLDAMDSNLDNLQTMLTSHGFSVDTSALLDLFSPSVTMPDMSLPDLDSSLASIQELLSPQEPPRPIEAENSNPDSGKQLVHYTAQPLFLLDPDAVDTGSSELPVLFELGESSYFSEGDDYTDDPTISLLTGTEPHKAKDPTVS

[11] = target: Induced myeloid leukemia cell differentiation protein Mcl-1 (Homo sapiens, UniProt Q07820); format: functional
[12] = target: T5, Carboxy-terminal domain RNA polymerase II polypeptide A small phosphatase 1 (Homo sapiens, UniProt Q9GZU7); assay: inhibitors of CTDSP1, concentration-response testing, biochemical assay, absorbance-based, actives from ultra-high-throughput screening (AID 540297); format: functional
T5 sequence (Q9GZU7 whole entry): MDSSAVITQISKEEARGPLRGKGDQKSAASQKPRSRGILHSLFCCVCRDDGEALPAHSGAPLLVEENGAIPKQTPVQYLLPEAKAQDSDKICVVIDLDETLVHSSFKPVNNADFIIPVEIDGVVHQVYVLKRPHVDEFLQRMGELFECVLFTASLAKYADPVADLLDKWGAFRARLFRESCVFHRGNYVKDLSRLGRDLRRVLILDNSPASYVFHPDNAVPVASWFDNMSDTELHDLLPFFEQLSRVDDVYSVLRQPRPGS

[13] = Luminescence Cell-Based Dose Confirmation HTS to Identify Inhibitors of Platelet Dense Granule Release. [Related pubchem assays: 1663 (Primary HTS), 1678 (Summary of Project)]; format: functional
[14] = target: Luciferin 4-monooxygenase (Photinus pyralis, UniProt P08659); assay: firefly luciferase enzyme inhibitors, dose response, biochemical, luminescence (AID 1891)
[15] = target: T4, Heat shock factor protein 1; assay: inhibition of MG132-induced HSE-luciferase signal, confirmation, cell-based, NIH3T3, luminescence, dose retest (AID 2382); format: functional;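 note: NIH3T3 fibroblasts with HSF1-driven luciferase reporter stressed by proteasome inhibitor MG132; luminescence from HSF1-driven luciferase expression after 8 hours of MG132 stress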
[16] = cytotoxicity toward NIH3T3 fibroblasts, dose response, counter-screen, cell-based, ATP luminescence, mouse fibroblasts (AID 2010); format: functional;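 note: cells exposed to compound for about 90 hours before reading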
[17] = target: T6, DNA repair protein RAD52 homolog (Homo sapiens, UniProt P43351); format: functional, biochemical
T6 sequence (P43351 whole entry): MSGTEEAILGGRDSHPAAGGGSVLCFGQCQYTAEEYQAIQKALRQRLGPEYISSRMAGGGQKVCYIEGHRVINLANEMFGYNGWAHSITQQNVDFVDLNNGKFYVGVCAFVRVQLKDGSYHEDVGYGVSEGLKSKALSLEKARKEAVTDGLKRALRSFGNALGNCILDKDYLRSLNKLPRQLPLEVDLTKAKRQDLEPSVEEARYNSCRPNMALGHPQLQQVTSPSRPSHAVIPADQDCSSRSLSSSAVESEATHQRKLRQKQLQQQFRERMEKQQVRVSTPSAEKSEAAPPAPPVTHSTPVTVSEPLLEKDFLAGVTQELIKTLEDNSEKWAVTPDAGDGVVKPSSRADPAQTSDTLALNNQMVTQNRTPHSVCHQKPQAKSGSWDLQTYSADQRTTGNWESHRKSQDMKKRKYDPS

[18] = inhibitors of intracellular T. cruzi replication, confirmation, NIH3T3 host cells, beta-gal luminescence (AID 2044); format: functional, cell-based;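 note: intracellular parasites grown in NIH/3T3 mouse fibroblasts as host cells; luminescent beta-galactosidase reporter signal from transgenic T. cruzi replicating inside host cells; inhibitors lower the luminescence signal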

T3 sequence (P11940 whole entry): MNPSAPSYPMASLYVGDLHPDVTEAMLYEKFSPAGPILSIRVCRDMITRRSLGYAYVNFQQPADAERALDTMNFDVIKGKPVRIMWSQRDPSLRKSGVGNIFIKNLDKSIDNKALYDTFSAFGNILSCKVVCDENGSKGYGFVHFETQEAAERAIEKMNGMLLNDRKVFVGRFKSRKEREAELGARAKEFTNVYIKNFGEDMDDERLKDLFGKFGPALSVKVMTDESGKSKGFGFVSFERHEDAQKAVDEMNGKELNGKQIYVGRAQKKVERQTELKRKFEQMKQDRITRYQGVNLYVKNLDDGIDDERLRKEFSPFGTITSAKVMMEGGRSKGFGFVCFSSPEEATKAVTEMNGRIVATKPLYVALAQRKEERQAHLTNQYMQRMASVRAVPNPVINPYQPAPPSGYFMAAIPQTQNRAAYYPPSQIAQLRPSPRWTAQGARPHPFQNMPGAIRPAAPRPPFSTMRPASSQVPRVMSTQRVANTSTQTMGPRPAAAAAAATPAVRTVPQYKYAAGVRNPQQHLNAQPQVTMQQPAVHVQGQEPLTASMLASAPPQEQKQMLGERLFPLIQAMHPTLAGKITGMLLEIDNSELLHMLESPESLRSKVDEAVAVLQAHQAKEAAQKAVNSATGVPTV
Sequence of Induced myeloid leukemia cell differentiation protein Mcl-1 (Q07820 whole entry, the tested form may be a part): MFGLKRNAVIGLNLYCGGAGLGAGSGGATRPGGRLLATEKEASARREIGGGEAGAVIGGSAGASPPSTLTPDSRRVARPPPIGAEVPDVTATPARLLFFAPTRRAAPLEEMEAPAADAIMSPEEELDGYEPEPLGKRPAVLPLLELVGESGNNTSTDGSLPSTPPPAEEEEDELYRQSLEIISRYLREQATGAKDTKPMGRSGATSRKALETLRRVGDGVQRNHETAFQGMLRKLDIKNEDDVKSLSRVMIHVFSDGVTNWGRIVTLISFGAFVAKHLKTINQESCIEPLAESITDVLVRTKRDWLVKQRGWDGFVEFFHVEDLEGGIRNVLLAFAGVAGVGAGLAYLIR
Sequence of Luciferin 4-monooxygenase (P08659 whole entry): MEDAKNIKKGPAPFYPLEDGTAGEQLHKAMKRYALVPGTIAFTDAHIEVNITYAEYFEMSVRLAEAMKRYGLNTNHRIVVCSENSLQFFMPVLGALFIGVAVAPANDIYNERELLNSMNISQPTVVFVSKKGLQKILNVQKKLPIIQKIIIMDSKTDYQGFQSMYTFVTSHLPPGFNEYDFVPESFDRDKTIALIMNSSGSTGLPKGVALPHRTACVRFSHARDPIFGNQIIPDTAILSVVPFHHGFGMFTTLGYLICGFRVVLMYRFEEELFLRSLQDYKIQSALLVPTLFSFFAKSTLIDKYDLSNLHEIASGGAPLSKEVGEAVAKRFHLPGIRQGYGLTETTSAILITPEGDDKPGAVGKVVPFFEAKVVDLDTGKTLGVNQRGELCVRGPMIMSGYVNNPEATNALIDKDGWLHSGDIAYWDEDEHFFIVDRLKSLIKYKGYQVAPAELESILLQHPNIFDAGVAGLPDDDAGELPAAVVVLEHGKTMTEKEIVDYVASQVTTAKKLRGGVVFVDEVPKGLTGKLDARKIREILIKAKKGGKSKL

## CCOC1(OCC)N=C(N)C2(C#N)C(c3ccc(NC(C)=O)cc3)C12C#N (centres undefined)
[1]
  EC50: 155 µM (active)
[2]
  EC50: 79.4 µM (active)

## CN1CCN(S(=O)(=O)c2ccc(NC(=S)NC(=O)C(C)(C)C)cc2)CC1
[3]
  IC50: > 66 µM (inactive)
[4]
  IC50: > 66 µM (inactive)

## Cc1cccc(OCC(O)Cn2c(=N)n(CCN3CCCCC3)c3ccccc32)c1 (centres undefined)
Vero
  CC50: 15 µM (active)
[5]
  EC50: 7.39 µM (active)
[6]
  EC50: 6.6 µM (active)

## CCOc1ccc(NC(=O)COc2ccccc2)c([N+](=O)[O-])c1
[1]
  EC50: > 300 µM (not active)
Cells [7]
  EC50: 11.9 µM (active)
[2]
  EC50: > 300 µM (not active)
Cells [8]
  EC50: > 350 µM (not active)

## COc1ccc(C(=O)NNC(=S)NC(=O)c2ccc(F)cc2)cc1Br
Vero
  CC50: > 25 µM (active)
[9]
  EC50: 0.378 µM (active)
Streptococcus
  EC50: 1.73 µM (active)

## COc1cc(NC(=O)CSc2nnc3ccc(-c4ccncc4)nn23)cc(OC)c1
[1]
  EC50: > 300 µM (not active)
[2]
  EC50: > 300 µM (not active)

## Cc1ccc(C(=O)Oc2oc(-c3ccccc3)nc2/C=N/c2ccc(N(C)C)cc2)cc1
[1]
  EC50: > 300 µM (not active)
[2]
  EC50: > 300 µM (inconclusive)
[10]
  EC50: 6.88 µM (active)

## O=C(COc1ccc2ccccc2c1)NNC(=O)c1ccc([N+](=O)[O-])cc1
[11]
  IC50: 7.07 µM (active)
[12]
  IC50: 6.67 µM (active)

## Cc1ccc(S(=O)(=O)Nc2ccccc2F)cc1C(=O)NNC(=O)c1csc(N2CCOCC2)n1
[1]
  EC50: 30.8 µM (active)
[2]
  EC50: 23.3 µM (active)

## Cc1cccc(/N=C/c2sc3ccccc3c2O)n1
[13]
  EC50: 22.1 µM (active)
[11]
  IC50: 1.57 µM (active)
[14]
  EC50: 1.02 µM (active)

## CSc1nc2c(=S)[nH]c(=S)[nH]c2s1
[3]
  IC50: > 66 µM (inactive)
[4]
  IC50: > 66 µM (inactive)

## Cc1cc2cc(CNC(=O)COc3ccccc3)ccc2n1C
[3]
  IC50: > 66 µM (inactive)
[4]
  IC50: > 66 µM (inactive)

## Cc1c(N=C2Nc3cccc4cccc2c34)c(=O)n(-c2ccccc2)n1C
[1]
  EC50: > 300 µM (not active)
[2]
  EC50: > 300 µM (not active)

## CC(C)c1nc(SCC(=O)c2ccc(F)cc2)c2ccccc2n1
[15]
  EC50: > 195 µM (not active)
[3]
  IC50: > 66 µM (inactive)
[4]
  IC50: > 66 µM (inactive)

## O=C(O)CCN1C(=O)/C(=C\c2ccc(-c3nc4ccccc4s3)o2)SC1=S
[11]
  IC50: 1.53 µM (active)

## CCOC(=O)c1ccccc1NC(=O)c1cn(-c2ccc(OC)cc2)c(=O)c2ccccc12
Vero
  CC50: > 25 µM (active)

## COc1ccc(C(=O)NC2(C(F)(F)F)C(=O)N(Cc3ccco3)C3=C2C(=O)CC(C)(C)C3)cc1OC (centres undefined)
[1]
  EC50: > 300 µM (not active)
[2]
  EC50: > 300 µM (not active)

## CC(=O)c1ccccc1-c1csc2ncnc(Sc3nnnn3C)c12
Vero
  CC50: > 25 µM (active)

## COc1cc2c(cc1OC)CN(c1nc(CN3CCCC3)nc3sc(C)c(C)c13)CC2
[16]
  EC50: > 60 µM (not active)
[17]
  AC50: 11.5 µM (active)
[18]
  EC50: 0.278 µM (active)

## CN(C)c1ccc(NC(=O)CCCc2ccccc2)cc1
[11]
  IC50: 4.98 µM (not active)
